Experimental data: ChEMBL document CHEMBL3860099, “Original Vinca Derivatives: From P-Glycoprotein Substrates to P-Glycoprotein Inhibitors” (J Med Chem, 2016)
Activity calls are given as the source filed them. No cut-off for these calls is given here.

Columns and labels:
K562R [1] = test: Inhibition of P-gp in doxorubicin-resistant human K562R cells assessed as rhodamine influx by measuring ratio of rhodamine mean fluorescence intensity in presence and absence of compound at 10 uM incubated for 20 mins by flow cytometry; format: cell-based
[2] = Cytotoxicity against doxorubicin-resistant human K562R cells incubated for 72 hrs by CellTiter 96 aqueous one solution reagent based assay; format: functional, cell-based; conditions: k-562r
[3] = Resistance index, ratio of IC50 for cytotoxicity against doxorubicin-resistant human K562R cells to IC50 for cytotoxicity against human K562 cells; format: functional
K562R [4] = test: Inhibition of P-gp in doxorubicin-resistant human K562R cells assessed as rhodamine influx by measuring mean fluorescence intensity at 10 uM incubated for 20 mins by flow cytometry; format: cell-based
[5] = Cytotoxicity against human K562 cells incubated for 72 hrs by CellTiter 96 aqueous one solution reagent based assay; format: functional, cell-based
K562R [6] = conditions: Homo sapiens
Description: Inhibition of P-gp in doxorubicin-resistant human K562R cells assessed as rhodamine efflux by measuring mean fluorescence intensity at 10 uM incubated for 1 hr by flow cytometry (Rvb = 0.47 No_unit)

[7] = Cytotoxicity against human MRC5 cells incubated for 72 hrs by CellTiter 96 aqueous one solution reagent based assay; format: toxicity, cell-based; conditions: mrc5, 72 h
K562R [8] = test: Inhibition of P-gp in doxorubicin-resistant human K562R cells assessed as rhodamine influx by measuring ratio of rhodamine mean fluorescence intensity in presence and absence of compound at 5 uM incubated for 20 mins by flow cytometry; format: cell-based
[9] = Cytotoxicity against doxorubicin-resistant human K562R cells assessed as reduction in cell viability at 1 uM incubated for 72 hrs by CellTiter 96 aqueous one solution reagent based assay; format: functional, K562
K562R [10] = test: Inhibition of P-gp-mediated multidrug resistance in doxorubicin-resistant human K562R cells assessed as potentiation of 50 nM vinorelbine-induced cytotoxicity at 2 uM incubated for 72 hrs by CellTiter 96 aqueous one solution reagent based assay; format: cell-based
K562R [11] = test: Inhibition of P-gp-mediated multidrug resistance in doxorubicin-resistant human K562R cells assessed as potentiation of 1 uM doxorubicin-induced cytotoxicity by measuring cell death level at 2 uM incubated for 72 hrs by CellTiter 96 aqueous one solution reagent based assay; set-up: scale not given: the % may be the effect or the level left
[12] = Cytotoxicity against doxorubicin-resistant human K562R cells assessed as reduction in cell viability at 2 uM incubated for 72 hrs by CellTiter 96 aqueous one solution reagent based assay; format: functional, K562
Homo sapiens [13] = species on record: Homo sapiens; test: Stimulation of recombinant human P-gp ATPase activity at 10 uM by Pgp-Glo assay
Homo sapiens [14] = species on record: Homo sapiens; test: Inhibition of recombinant human P-gp ATPase activity at 40 uM by Pgp-Glo assay
K562 = test: Potentiation of 0.1 to 1 nM vinorelbine-induced cytotoxicity by measuring reduction in cell viability against human K562 cells at 2 uM incubated for 72 hrs by CellTiter 96 aqueous one solution reagent based assay; format: functional
K562R [15] = test: Inhibition of P-gp-mediated multidrug resistance in doxorubicin-resistant human K562R cells assessed as potentiation of 5 nM vinorelbine-induced cytotoxicity by measuring cell viability at 1 uM incubated for 72 hrs by CellTiter 96 aqueous one solution reagent based assay

| SMILES | Ratio (K562R [1]) | IC50 [2] [µmol] | Ratio IC50 [3] | Flu intensity (K562R [4]) | IC50 [5] [µmol] | Flu intensity (K562R [6]) | Activity [7] | inhibition (K562R [8]) | Activity [9] [%] | inhibition (K562R [10]) | Activity (K562R [11]) [%] | Activity [12] [%] | Activity (Homo sapiens [13]) | inhibition (Homo sapiens [14]) | Activity (K562) [%] | Activity (K562R [15]) [%] |
| --- | --- | --- | --- | --- | --- | --- | --- | --- | --- | --- | --- | --- | --- | --- | --- | --- |
| C#Cc1ccc2[nH]c3c(c2c1)C/C(C(=O)OC)=C\N1CC(CC)=C[C@@H](C1)C[C@]3(C(=O)OC)c1cc2c(cc1OC)N(C)[C@H]1[C@@](O)(C(=O)OC)[C@H](OC(C)=O)[C@]3(CC)C=CCN4CC[C@]21[C@@H]43 | 0.9 | 3 | 5 | 1.6 | 0.6 | 0.45 | – | – | – | – | – | – | – | – | – | – |
| CCC1=C[C@H]2CN(C1)/C(C(=O)NC(C)C)=C(/C(=O)OC)Cc1c([nH]c3ccccc13)[C@@](C(=O)OC)(c1cc3c(cc1OC)N(C)[C@H]1[C@@](O)(C(=O)OC)[C@H](OC(C)=O)[C@]4(CC)C=CCN5CC[C@]31[C@@H]54)C2 | 1.6 | 2 | 50 | 2.9 | 0.04 | 1.39 | – | – | – | – | – | – | – | – | – | – |
| CCC1=C[C@@H]2CN(C1)Cc1c([nH]c3ccccc13)[C@@](C(=O)OC)(c1cc3c(cc1OC)N(C)[C@H]1[C@@](O)(C(=O)OC)[C@H](OC(C)=O)[C@]4(CC)C=CCN5CC[C@]31[C@@H]54)C2 [VINORELBINE] | 0.9 | 0.41 | 137 | 1.6 | 0.003 | 0.42 | Toxic | – | – | – | – | – | – | – | – | – |
| CCC1=C[C@H]2CN(C1)C[C@H](C(=O)OCc1ccccc1)Cc1c([nH]c3ccccc13)[C@@](C(=O)OC)(c1cc3c(cc1OC)N(C)[C@H]1[C@@](O)(C(=O)OC)[C@H](OC(C)=O)[C@]4(CC)C=CCN5CC[C@]31[C@@H]54)C2 | 1.2 | > 10 | >25 | 2.2 | 0.4 | 0.48 | – | – | – | – | – | – | – | – | – | – |
| CCOC(=O)[C@@H]1Cc2c([nH]c3ccccc23)[C@@](C(=O)OC)(c2cc3c(cc2OC)N(C)[C@H]2[C@@](O)(C(=O)OC)[C@H](OC(C)=O)[C@]4(CC)C=CCN5CC[C@]32[C@@H]54)C[C@H]2C=C(CC)CN(C2)C1 | 2.9 | 3 | 37 | 5.3 | 0.08 | 0.77 | – | – | – | – | – | – | – | – | – | – |
| CC[C@]1(O)C[C@@H]2CN(CCc3c([nH]c4ccccc34)[C@@](C(=O)OC)(c3cc4c(cc3OC)N(C)[C@H]3[C@@](O)(C(=O)OC)[C@H](OC(C)=O)[C@]5(CC)C=CCN6CC[C@]43[C@@H]65)C2)C1 [VINBLASTINE] | 0.7 | 0.48 | 120 | 1.2 | 0.004 | 0.42 | Toxic | – | – | – | – | – | – | – | – | – |
| CCC1=C[C@H]2CN(C1)C1=C(Cc3c([nH]c4ccccc34)[C@@](C(=O)OC)(c3cc4c(cc3OC)N(C)[C@H]3[C@@](O)(C(=O)OC)[C@H](OC(C)=O)[C@]5(CC)C=CCN6CC[C@]43[C@@H]65)C2)C(=O)N(CC(C)C)C1=O | 20 | 2.5 | 5.5 | 36 | 0.45 | 7.72 | Toxic | Active | – | – | – | – | – | – | – | – |
| CCC1=C[C@H]2CN(C1)C1=C(Cc3c([nH]c4ccccc34)[C@@](C(=O)OC)(c3cc4c(cc3OC)N(C)[C@H]3[C@@](O)(C(=O)OC)[C@H](OC(C)=O)[C@]5(CC)C=CCN6CC[C@]43[C@@H]65)C2)C(=O)N(Cc2ccccc2)C1=O | 6.3 | 5 | 5.5 | 11.3 | 0.9 | 1.89 | Toxic | Active | 20 | Active | 90 | 20 | Active | Active | 20 | 40 |
| CCC1=C[C@H]2CN(C1)/C(C(=O)NCc1ccccc1)=C(/C(=O)OC)Cc1c([nH]c3ccccc13)[C@@](C(=O)OC)(c1cc3c(cc1OC)N(C)[C@H]1[C@@](O)(C(=O)OC)[C@H](OC(C)=O)[C@]4(CC)C=CCN5CC[C@]31[C@@H]54)C2 | 1.2 | 6 | 150 | 2.2 | 0.04 | 0.55 | – | – | – | – | – | – | – | – | – | – |
| COc1cccc2c1C(=O)c1c(O)c3c(c(O)c1C2=O)C[C@@](O)(C(=O)CO)C[C@@H]3O[C@H]1C[C@H](N)[C@H](O)[C@H](C)O1 [DOXORUBICIN] | – | 35 | 745 | – | 0.047 | – | – | – | – | – | – | – | – | – | – | – |
| CCC1=C[C@H]2CN(C1)C1=C(Cc3c([nH]c4ccccc34)[C@@](C(=O)OC)(c3cc4c(cc3OC)N(C)[C@H]3[C@@](O)(C(=O)OC)[C@H](OC(C)=O)[C@]5(CC)C=CCN6CC[C@]43[C@@H]65)C2)C(=O)N(C(C)C)C1=O | 4.2 | 6 | 2.3 | 7.6 | 2.6 | 2.9 | Toxic | Active | – | – | – | – | – | – | – | – |
| C#Cc1ccc2[nH]c3c(c2c1)C/C(C(=O)OC)=C(/C(=O)NC(C)C)N1CC(CC)=C[C@@H](C1)C[C@]3(C(=O)OC)c1cc2c(cc1OC)N(C)[C@H]1[C@@](O)(C(=O)OC)[C@H](OC(C)=O)[C@]3(CC)C=CCN4CC[C@]21[C@@H]43 | 1 | 2.5 | 4 | 1.8 | 0.6 | 0.51 | – | – | – | – | – | – | – | – | – | – |
| CCOC(=O)/C1=C/N2CC(CC)=C[C@@H](C2)C[C@](C(=O)OC)(c2cc3c(cc2OC)N(C)[C@H]2[C@@](O)(C(=O)OC)[C@H](OC(C)=O)[C@]4(CC)C=CCN5CC[C@]32[C@@H]54)c2[nH]c3ccccc3c2C1 | 4 | > 10 | >100 | 7.2 | 0.1 | 0.64 | – | – | – | – | – | – | – | – | – | – |
| CCC1=C[C@H]2CN(/C=C(/C(=O)OC)Cc3c([nH]c4ccc(Br)cc34)[C@@](C(=O)OC)(c3cc4c(cc3OC)N(C)[C@H]3[C@@](O)(C(=O)OC)[C@H](OC(C)=O)[C@]5(CC)C=CCN6CC[C@]43[C@@H]65)C2)C1 | 1.2 | 3 | 6 | 2.1 | 0.5 | 0.47 | – | – | – | – | – | – | – | – | – | – |
| CCC1=C[C@H]2CN(/C=C(/C(=O)OCc3ccccc3)Cc3c([nH]c4ccccc34)[C@@](C(=O)OC)(c3cc4c(cc3OC)N(C)[C@H]3[C@@](O)(C(=O)OC)[C@H](OC(C)=O)[C@]5(CC)C=CCN6CC[C@]43[C@@H]65)C2)C1 | 1.3 | > 10 | >100 | 2.3 | 0.1 | 0.48 | – | – | – | – | – | – | – | – | – | – |
